The source of these data is patent US9499550B2 (BRISTOL-MYERS SQUIBB COMPANY, priority 2012, dated 2016).

Broadly, the EC50 is the concentration giving half of the maximal effect.

The subject of experiment [1] is HCV genotype 1a (H77 strain) replicon in HUH-7 cells. Nature of the experiment: HCV replicon luciferase reporter assay, genotype 1a. The experiment is classed as cell-based. Particulars: HCV genotype 1a replicon luciferase, 3 days incubation. In outline: (§1)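 Replicon inhibition for both genotypes was measured as Renilla luciferase signal (EnduRen, 7.5 μM final, 2 h) after 3-day, 37° C exposure of replicon-bearing HUH-7 cells in 4% FCS DMEM, 0.5% DMSO. The 1b construct carries S1179I; the 1a H77 construct carries P1496L and S2204I. Twenty-point, 3-fold dilutions were fitted four-parametrically for EC50, and CC50 was taken from multiplexed Cell Titer-Blue.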

For experiment [2], the system named is HCV genotype 1b (Con1) replicon in HUH-7 cells. As to the kind of experiment: HCV replicon luciferase reporter assay, genotype 1b. The class given is cell-based. Particulars: HCV genotype 1b replicon luciferase, 3 days incubation. In outline: as §1
On the technique in general: A replicon is a self-replicating genome or part of one, used to study replication in cells.

Setting [3] is: Hepatitis C virus, Huh-7, 72 h, read-out: LE_1a (EC50, range).
[4] abbreviates: Hepatitis C virus, Huh-7, 72 h, read-out: LE_1b (EC50, range).

Molecules are shown by their SMILES. Where two headings read alike, the source gives them in different places. Some results are limits rather than exact numbers.

For `CC[C@@H]1C[C@@H](C)CC/C=C\[C@@H]2C[C@@]2(C(=O)NS(=O)(=O)C2CC2)NC(=O)[C@@H]2C[C@@H](Oc3nccc4c5c(ccc34)N(C)CCO5)CN2C(=O)[C@H]1NC(=O)OC(C)(C)C(F)(F)F` [Compound 5309, 1,1,1-trifluoro-2-methylpropan-2-yl((2R,6S,7R,9S,13aS,14aR,16aS,Z)-14a-((cyclopropylsulfonyl)carbamoyl)-7-ethyl-9-methyl-2-((4-methyl-3,4-dihydro-2H-[1,4]oxazino[2,3-f]isoquinolin-7-yl)oxy)-5,16-dioxo-1,2,3,5,6,7,8,9,10,11,13a,14,14a,15,16,16a-hexadecahydrocyclopropa[e]pyrrolo[1,2-a][1,4]diazacyclopentadecin-6-yl)carbamate], the EC50 in experiment [1] (setting [3]) was 4.82 to 103 nM; in experiment [2] (setting [4]) it was under 5.46 nM.

Turning to `CC[C@@H]1C[C@H](C)CC/C=C\[C@@H]2C[C@@]2(C(=O)NS(=O)(=O)C2CC2)NC(=O)[C@@H]2C[C@@H](Oc3nccc4c5c(ccc34)N(C)CCO5)CN2C(=O)[C@H]1NC(=O)OC(C)(C)C(F)(F)F` [Compound 5310, 1,1,1-trifluoro-2-methylpropan-2-yl((2R,6S,7R,9R,13aS,14aR,16aS,Z)-14a-((cyclopropylsulfonyl)carbamoyl)-7-ethyl-9-methyl-2-((4-methyl-3,4-dihydro-2H-[1,4]oxazino[2,3-f]isoquinolin-7-yl)oxy)-5,16-dioxo-1,2,3,5,6,7,8,9,10,11,13a,14,14a,15,16,16a-hexadecahydrocyclopropa[e]pyrrolo[1,2-a][1,4]diazacyclopentadecin-6-yl)carbamate], the EC50 in experiment [1] (setting [3]) and in experiment [2] (setting [4]) was under 5.46 nM throughout.

With `[2H]C([2H])([2H])C(OC(=O)N[C@@H]1C(=O)N2C[C@H](Oc3nccc4c5c(ccc34)N(C)CCO5)C[C@H]2C(=O)N[C@]2(C(=O)NS(=O)(=O)C3CC3)C[C@H]2/C=C\CC[C@H](C)C[C@H]1CC)(C([2H])([2H])[2H])C(F)(F)F` [Compound 5311, 1,1,1,3,3,3-hexadeutero-2-(trifluoromethyl)propan-2-yl((2R,6S,7R,9S,13aS,14aR,16aS,Z)-14a-((cyclopropylsulfonyl)carbamoyl)-7-ethyl-9-methyl-2-((4-methyl-3,4-dihydro-2H-[1,4]oxazino[2,3-f]isoquinolin-7-yl)oxy)-5,16-dioxo-1,2,3,5,6,7,8,9,10,11,13a,14,14a,15,16,16a-hexadecahydrocyclopropa[e]pyrrolo[1,2-a][1,4]diazacyclopentadecin-6-yl)carbamate], the EC50 in experiment [1] (setting [3]) and in experiment [2] (setting [4]) was under 5.46 nM each time.

Regarding `[2H]C([2H])([2H])C(OC(=O)N[C@@H]1C(=O)N2C[C@H](Oc3nccc4c5c(ccc34)N(C)CCO5)C[C@H]2C(=O)N[C@]2(C(=O)NS(=O)(=O)C3CC3)C[C@H]2/C=C\CC[C@@H](C)C[C@H]1CC)(C([2H])([2H])[2H])C(F)(F)F` [Compound 5312, 1,1,1,3,3,3-hexadeutero-2-(trifluoromethyl)propan-2-yl((2R,6S,7R,9R,13aS,14aR,16aS,Z)-14a-((cyclopropylsulfonyl)carbamoyl)-7-ethyl-9-methyl-2-((4-methyl-3,4-dihydro-2H-[1,4]oxazino[2,3-f]isoquinolin-7-yl)oxy)-5,16-dioxo-1,2,3,5,6,7,8,9,10,11,13a,14,14a,15,16,16a-hexadecahydrocyclopropa[e]pyrrolo[1,2-a][1,4]diazacyclopentadecin-6-yl)carbamate], the EC50 in experiment [1] (setting [3]) and in experiment [2] (setting [4]) was under 5.46 nM throughout.

For `CC[C@@H]1C[C@@H](C)CC/C=C\[C@@H]2C[C@@]2(C(=O)NS(=O)(=O)C2CC2)NC(=O)[C@@H]2C[C@@H](Oc3nccc4c5c(ccc34)N(C)CCO5)CN2C(=O)[C@H]1NC(=O)O[C@@H]1C[C@@H]2C[C@@H]2C1` [Compound 5313, (1R,3r,5 S)-bicyclo[3.1.0]hexan-3-yl((2R,6S,7R,9S,13aS,14aR,16aS,Z)-14a-((cyclopropylsulfonyl)carbamoyl)-7-ethyl-9-methyl-2-((4-methyl-3,4-dihydro-2H-[1,4]oxazino[2,3-f]isoquinolin-7-yl)oxy)-5,16-dioxo-1,2,3,5,6,7,8,9,10,11,13a,14,14a,15,16,16a-hexadecahydrocyclopropa[e]pyrrolo[1,2-a][1,4]diazacyclopentadecin-6-yl)carbamate], the EC50 in experiment [1] (setting [3]) and in experiment [2] (setting [4]) was under 5.46 nM in each case.

Regarding `CC[C@@H]1C[C@H](C)CC/C=C\[C@@H]2C[C@@]2(C(=O)NS(=O)(=O)C2CC2)NC(=O)[C@@H]2C[C@@H](Oc3nccc4c5c(ccc34)N(C)CCO5)CN2C(=O)[C@H]1NC(=O)O[C@@H]1C[C@@H]2C[C@@H]2C1` [Compound 5314, (1R,3r,5S)-bicyclo[3.1.0]hexan-3-yl((2R,6S,7R,9R,13aS,14aR,16aS,Z)-14a-((cyclopropylsulfonyl)carbamoyl)-7-ethyl-9-methyl-2-((4-methyl-3,4-dihydro-2H-[1,4]oxazino[2,3-f]isoquinolin-7-yl)oxy)-5,16-dioxo-1,2,3,5,6,7,8,9,10,11,13a,14,14a,15,16,16a-hexadecahydrocyclopropa[e]pyrrolo[1,2-a][1,4]diazacyclopentadecin-6-yl)carbamate], the EC50 was 1.59 nM in experiment [1] (Hepatitis C virus, Huh-7, 72 h, read-out: LE_1a (EC50)); under 5.46 nM in experiment [1] (setting [3]); 1.06 nM in experiment [2] (Hepatitis C virus, Huh-7, 72 h, read-out: LE_1b (EC50)); under 5.46 nM in experiment [2] (setting [4]).

Take `CC[C@@H]1C[C@@H](C)CC/C=C\[C@@H]2C[C@@]2(C(=O)NS(=O)(=O)C2CC2)NC(=O)[C@@H]2C[C@@H](Oc3nccc4c5c(ccc34)N(C)CCO5)CN2C(=O)[C@H]1NC(=O)NC(C)(C)C` [Compound 5315, (2R,6S,7R,9S,13aS,14aR,16aS,Z)-6-(3-(tert-butyl)ureido)-N-(cyclopropylsulfonyl)-7-ethyl-9-methyl-2-((4-methyl-3,4-dihydro-2H-[1,4]oxazino[2,3-f]isoquinolin-7-yl)oxy)-5,16-dioxo-1,2,3,5,6,7,8,9,10,11,13a,14,14a,15,16,16a-hexadecahydrocyclopropa[e]pyrrolo[1,2-a][1,4]diazacyclopentadecine-14a-carboxamide]: the EC50 in experiment [1] (setting [3]) and in experiment [2] (setting [4]) was 4.82 to 103 nM each time.

Take `CC[C@@H]1C[C@H](C)CC/C=C\[C@@H]2C[C@@]2(C(=O)NS(=O)(=O)C2CC2)NC(=O)[C@@H]2C[C@@H](Oc3nccc4c5c(ccc34)N(C)CCO5)CN2C(=O)[C@H]1NC(=O)NC(C)(C)C` [Compound 5316, (2R,6S,7R,9R,13aS,14aR,16aS,Z)-6-(3-(tert-butyl)ureido)-N-(cyclopropylsulfonyl)-7-ethyl-9-methyl-2-((4-methyl-3,4-dihydro-2H-[1,4]oxazino[2,3-f]isoquinolin-7-yl)oxy)-5,16-dioxo-1,2,3,5,6,7,8,9,10,11,13a,14,14a,15,16,16a-hexadecahydrocyclopropa[e]pyrrolo[1,2-a][1,4]diazacyclopentadecine-14a-carboxamide]: the EC50 in experiment [1] (setting [3]) and in experiment [2] (setting [4]) was under 5.46 nM in each case.

As to `CC[C@@H]1C[C@@H](C)CC/C=C\[C@@H]2C[C@@]2(C(=O)NS(=O)(=O)C2CC2)NC(=O)[C@@H]2C[C@@H](Oc3nccc4c5c(ccc34)N(C)CCO5)CN2C(=O)[C@H]1NC(=O)C(=O)N(C)C` [Compound 5317, N1-((2R,6S,7R,9S,13aS,14aR,16aS,Z)-14a-((cyclopropylsulfonyl)carbamoyl)-7-ethyl-9-methyl-2-((4-methyl-3,4-dihydro-2H-[1,4]oxazino[2,3-f]isoquinolin-7-yl)oxy)-5,16-dioxo-1,2,3,5,6,7,8,9,10,11,13a,14,14a,15,16,16a-hexadecahydrocyclopropa[e]pyrrolo[1,2-a][1,4]diazacyclopentadecin-6-yl)-N2,N2-dimethyloxalamide], the concentration giving a half-maximal response (EC50) in experiment [1] (setting [3]) and in experiment [2] (setting [4]) was 4.82 to 103 nM in each case.

As for `CC[C@@H]1C[C@H](C)CC/C=C\[C@@H]2C[C@@]2(C(=O)NS(=O)(=O)C2CC2)NC(=O)[C@@H]2C[C@@H](Oc3nccc4c5c(ccc34)N(C)CCO5)CN2C(=O)[C@H]1NC(=O)C(=O)N(C)C` [Compound 5318, N1-((2R,6S,7R,9R,13aS,14aR,16aS,Z)-14a-((cyclopropylsulfonyl)carbamoyl)-7-ethyl-9-methyl-2-((4-methyl-3,4-dihydro-2H-[1,4]oxazino[2,3-f]isoquinolin-7-yl)oxy)-5,16-dioxo-1,2,3,5,6,7,8,9,10,11,13a,14,14a,15,16,16a-hexadecahydrocyclopropa[e]pyrrolo[1,2-a][1,4]diazacyclopentadecin-6-yl)-N2,N2-dimethyloxalamide], the EC50 in experiment [1] (setting [3]) and in experiment [2] (setting [4]) was under 5.46 nM in each case.

Consider `CC[C@@H]1C[C@@H](C)CC/C=C\[C@@H]2C[C@@]2(C(=O)NS(=O)(=O)C2(CF)CC2)NC(=O)[C@@H]2C[C@@H](Oc3nccc4c5c(ccc34)N(C)CCO5)CN2C(=O)[C@H]1NC(=O)OC(C)(C)C(F)(F)F` [Compound 5319, 1,1,1-trifluoro-2-methylpropan-2-yl((2R,6S,7R,9S,13aS,14aR,16aS,Z)-7-ethyl-14a-(((1-(fluoromethyl)cyclopropyl)sulfonyl)carbamoyl)-9-methyl-2-((4-methyl-3,4-dihydro-2H-[1,4]oxazino[2,3-f]isoquinolin-7-yl)oxy)-5,16-dioxo-1,2,3,5,6,7,8,9,10,11,13a,14,14a,15,16,16a-hexadecahydrocyclopropa[e]pyrrolo[1,2-a][1,4]diazacyclopentadecin-6-yl)carbamate], for which the EC50 was found to be 33.6 nM in experiment [1] (read-out: LE_1a (EC50)) and 14.2 nM in experiment [2] (read-out: LE_1b (EC50)).
